One assay deals with STAT3. To be noted: in some settings; read-out: STAT3 inhibition IC50; cited from earlier work.
The target of another assay is STAT3-SH2 domain (Homo sapiens, UniProt P40763). Put plainly: STAT AlphaScreen-based assay (STAT3). The assay is classed as binding. To be noted: AlphaScreen assay; read-out: STAT3 IC50 ±SD. In general terms: In Alpha technology, singlet oxygen from a donor bead excites a nearby acceptor bead.

The structures appear in SMILES notation.

For orientation: IC50 means the concentration needed to halve the response being measured.

Chain of STAT3-SH2 domain (P40763 whole entry, the tested form may be a part): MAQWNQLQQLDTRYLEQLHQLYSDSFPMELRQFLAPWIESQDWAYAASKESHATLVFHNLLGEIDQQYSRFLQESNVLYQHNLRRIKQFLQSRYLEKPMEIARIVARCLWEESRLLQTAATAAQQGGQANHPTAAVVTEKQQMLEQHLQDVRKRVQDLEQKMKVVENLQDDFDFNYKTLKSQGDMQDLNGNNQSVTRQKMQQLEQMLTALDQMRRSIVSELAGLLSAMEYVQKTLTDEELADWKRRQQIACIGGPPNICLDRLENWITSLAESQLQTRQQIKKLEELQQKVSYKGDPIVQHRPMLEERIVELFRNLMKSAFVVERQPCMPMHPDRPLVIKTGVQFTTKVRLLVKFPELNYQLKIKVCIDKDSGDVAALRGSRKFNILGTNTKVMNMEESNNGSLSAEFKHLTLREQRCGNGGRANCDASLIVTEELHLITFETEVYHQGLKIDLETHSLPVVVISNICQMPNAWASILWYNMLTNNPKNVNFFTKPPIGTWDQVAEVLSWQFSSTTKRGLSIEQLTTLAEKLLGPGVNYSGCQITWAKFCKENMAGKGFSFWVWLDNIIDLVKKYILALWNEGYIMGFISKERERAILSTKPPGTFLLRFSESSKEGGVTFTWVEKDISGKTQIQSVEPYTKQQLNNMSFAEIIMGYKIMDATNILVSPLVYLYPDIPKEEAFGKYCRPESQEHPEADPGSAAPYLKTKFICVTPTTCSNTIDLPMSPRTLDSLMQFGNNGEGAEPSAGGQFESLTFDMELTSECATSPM

With `O=C(O)/C=C/c1ccc(O)c(O)c1` [Compound 19, caffeic acid, reference compound], the IC50 in the assay with STAT3 is 70 to 100 µM; on STAT3-SH2 domain, above 30 µM.
